Source: patent publication US20260015350A1, “AZAQUINAZOLINE PAN-KRAS INHIBITORS” (Mirati Therapeutics, Inc., priority 2022, published 2026)

How the values were obtained:
KRas^G12A = target: T1, KRas^G12A (Homo sapiens, UniProt P01116, G12A); assay: KRas binding assay (TR-FRET tracer displacement), KRas G12A; details: single point, 10 nM compound, TR-FRET
T1 construct: Biotinylated KRas (corresponding to amino acids 1-169, produced at Accelegan Inc.); biotin (biotinylated); purchased Accelegan Inc

KRas^G12S = target: T2, KRas^G12S (Homo sapiens, UniProt P01116, G12S); assay: KRas binding assay (TR-FRET tracer displacement), KRas G12S; details: single point, 10 nM compound, TR-FRET
T2 construct: Biotinylated KRas (corresponding to amino acids 1-169, produced at Accelegan Inc.); biotin (biotinylated); purchased Accelegan Inc

[1] = system: KRas-mediated phosphorylation of ERK in H727 cells; assay: Inhibition of KRas-mediated phosphorylation of ERK (Cisbio HTRF pERK), H727 cells; format: cell-based; details: Homo sapiens, NCI-H727, H727 cells; HTRF pERK
Method in brief: (§1)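 6,000 cells/well; cpd 10 uM top, 3-fold x10, 0.8% DMSO final; 3 hr incubation; Min ctrl Trametinib 0.2 uM; lysis 40 min 4° C shaking; d2 + Cryptate Ab mix, 2 hr RT; HTRF read.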

KRas^G13D = target: T3, KRas^G13D (Homo sapiens, UniProt P01116, G13D); assay: KRas binding assay (TR-FRET tracer displacement), KRas G13D; details: single point, 10 nM compound, TR-FRET
T3 construct: Biotinylated KRas (corresponding to amino acids 1-169, produced at Accelegan Inc.); biotin (biotinylated); purchased Accelegan Inc

[2] = system: KRas-mediated phosphorylation of ERK in H460 cells; assay: Inhibition of KRas-mediated phosphorylation of ERK (Cisbio HTRF pERK), H460 cells; format: cell-based; details: Homo sapiens; for inhibition at 0.1 µM: NCI-H460, 3 h, single point, 100 nM compound, 3 hrs; for IC50: NCI-H460, HTRF pERK
Method in brief: as §1

KRas^G12C = target: T4, KRas^G12C (Homo sapiens, UniProt P01116, G12C); assay: KRas binding assay (TR-FRET tracer displacement), KRas G12C; details: single point, 10 nM compound, TR-FRET
T4 construct: Biotinylated KRas (corresponding to amino acids 1-169, produced at Accelegan Inc.); biotin (biotinylated); purchased Accelegan Inc

KRas^G12R = target: T5, KRas^G12R (Homo sapiens, UniProt P01116, G12R); assay: KRas binding assay (TR-FRET tracer displacement), KRas G12R
T5 construct: Biotinylated KRas (corresponding to amino acids 1-169, produced at Accelegan Inc.); biotin (biotinylated); purchased Accelegan Inc

KRas^G12D = target: T6, KRas^G12D (Homo sapiens, UniProt P01116, G12D); assay: KRas binding assay (TR-FRET tracer displacement), KRas G12D
T6 construct: Biotinylated KRas (corresponding to amino acids 1-169, produced at Accelegan Inc.); biotin (biotinylated); purchased Accelegan Inc

[3] = system: KRas-mediated phosphorylation of ERK in HCT116 cells; assay: Inhibition of KRas-mediated phosphorylation of ERK (Cisbio HTRF pERK), HCT116 cells; format: cell-based; details: Homo sapiens; for inhibition at 0.1 µM: HCT-116, 3 h, single point, 100 nM compound, 3 hrs; for IC50: HCT-116, HTRF pERK
Method in brief: (§2)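 A cell-based HTRF pERK assay: ten-point, threefold titrations beginning at 10 uM were applied for 3 hrs, with 0.2 uM Trametinib wells as the minimum control. Cells were lysed cold, and lysate was incubated with the antibody pair for 2 hrs before reading.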

[4] = system: KRas-mediated phosphorylation of ERK in H358 cells; assay: Inhibition of KRas-mediated phosphorylation of ERK (Cisbio HTRF pERK), H358 cells; format: cell-based; details: Homo sapiens; for inhibition at 0.1 µM: NCI-H358, 3 h, single point, 100 nM compound, 3 hrs
Method in brief: as §1

[5] = system: KRas-mediated phosphorylation of ERK in A549 cells; assay: Inhibition of KRas-mediated phosphorylation of ERK (Cisbio HTRF pERK), A549 cells; format: cell-based; details: Homo sapiens; for inhibition at 0.1 µM: A549, 3 h, single point, 100 nM compound, 3 hrs
Method in brief: as §2

KRas^WT = target: T7, KRas^WT (Homo sapiens, UniProt P01116); assay: KRas binding assay (TR-FRET tracer displacement), KRas WT; details: single point, 10 nM compound, TR-FRET
T7 construct: Biotinylated KRas (corresponding to amino acids 1-169, produced at Accelegan Inc.); biotin (biotinylated); purchased Accelegan Inc

KRas^Q61H = target: T8, KRas^Q61H (Homo sapiens, UniProt P01116, Q61H); assay: KRas binding assay (TR-FRET tracer displacement), KRas Q61H; details: single point, 10 nM compound, TR-FRET
T8 construct: Biotinylated KRas (corresponding to amino acids 1-169, produced at Accelegan Inc.); biotin (biotinylated); purchased Accelegan Inc

KRas^G12V = target: T9, KRas^G12V (Homo sapiens, UniProt P01116, G12V); assay: KRas binding assay (TR-FRET tracer displacement), KRas G12V
T9 construct: Biotinylated KRas (corresponding to amino acids 1-169, produced at Accelegan Inc.); biotin (biotinylated); purchased Accelegan Inc

[6] = system: KRas-mediated phosphorylation of ERK in MKN1 cells; assay: Inhibition of KRas-mediated phosphorylation of ERK (Cisbio HTRF pERK), MKN1 cells; format: cell-based; details: Homo sapiens, MKN-1
Method in brief: (§3)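 Seeding density was 6,000 cells/well; medium RPMI, 10% FBS. Read-out by homogeneous time-resolved fluorescence (pERK) after 4 hours covered at room temperature.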

[7] = system: KRas-mediated phosphorylation of ERK in AsPC-1 cells; assay: Inhibition of KRas-mediated phosphorylation of ERK (Cisbio HTRF pERK), AsPC-1 cells; format: cell-based; details: Homo sapiens, ASPC1, AsPC-1 cells; HTRF pERK
Method in brief: as §1

[8] = system: KRas-mediated phosphorylation of ERK in PSN1 cells; assay: Inhibition of KRas-mediated phosphorylation of ERK (Cisbio HTRF pERK), PSN1 cells; format: cell-based; details: Homo sapiens
Method in brief: as §3

T6 sequence (P01116 1-169 isoform P01116-2 G12D): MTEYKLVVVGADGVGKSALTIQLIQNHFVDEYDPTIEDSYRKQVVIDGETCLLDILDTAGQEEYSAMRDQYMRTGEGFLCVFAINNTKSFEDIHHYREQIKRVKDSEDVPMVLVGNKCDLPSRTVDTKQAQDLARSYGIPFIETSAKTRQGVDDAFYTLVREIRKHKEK
T9 sequence (P01116 1-169 isoform P01116-2 G12V): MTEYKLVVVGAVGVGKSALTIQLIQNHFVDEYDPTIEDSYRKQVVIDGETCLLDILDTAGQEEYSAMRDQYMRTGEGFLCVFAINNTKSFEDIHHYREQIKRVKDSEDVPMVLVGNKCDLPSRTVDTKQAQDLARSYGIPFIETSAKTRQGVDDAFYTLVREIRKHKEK
T4 sequence (P01116 1-169 isoform P01116-2 G12C): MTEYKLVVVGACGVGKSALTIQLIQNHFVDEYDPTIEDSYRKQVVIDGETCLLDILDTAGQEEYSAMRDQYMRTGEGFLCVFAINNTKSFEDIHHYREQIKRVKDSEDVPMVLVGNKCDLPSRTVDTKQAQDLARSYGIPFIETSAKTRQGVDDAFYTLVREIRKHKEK
T7 sequence (P01116 1-169 isoform P01116-2): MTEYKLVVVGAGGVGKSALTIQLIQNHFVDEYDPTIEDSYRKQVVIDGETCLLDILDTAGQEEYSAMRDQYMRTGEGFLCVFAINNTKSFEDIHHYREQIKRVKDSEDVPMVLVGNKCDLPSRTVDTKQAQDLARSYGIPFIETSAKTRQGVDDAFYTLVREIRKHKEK
T2 sequence (P01116 1-169 isoform P01116-2 G12S): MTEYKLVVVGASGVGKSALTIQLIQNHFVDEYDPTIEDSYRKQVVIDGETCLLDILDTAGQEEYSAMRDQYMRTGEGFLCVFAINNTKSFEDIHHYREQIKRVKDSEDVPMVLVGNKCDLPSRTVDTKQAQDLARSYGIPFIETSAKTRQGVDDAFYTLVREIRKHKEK
T3 sequence (P01116 1-169 isoform P01116-2 G13D): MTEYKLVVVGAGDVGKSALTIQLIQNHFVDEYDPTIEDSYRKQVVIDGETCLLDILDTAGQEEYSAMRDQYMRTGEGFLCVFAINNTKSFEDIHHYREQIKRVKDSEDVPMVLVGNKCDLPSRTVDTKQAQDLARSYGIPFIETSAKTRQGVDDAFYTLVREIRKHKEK
T1 sequence (P01116 1-169 isoform P01116-2 G12A): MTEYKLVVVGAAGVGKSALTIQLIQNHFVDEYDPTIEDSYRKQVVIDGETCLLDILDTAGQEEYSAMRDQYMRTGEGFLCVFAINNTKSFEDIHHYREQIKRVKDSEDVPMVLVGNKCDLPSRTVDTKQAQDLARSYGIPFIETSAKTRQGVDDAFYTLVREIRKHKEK
T5 sequence (P01116 1-169 isoform P01116-2 G12R): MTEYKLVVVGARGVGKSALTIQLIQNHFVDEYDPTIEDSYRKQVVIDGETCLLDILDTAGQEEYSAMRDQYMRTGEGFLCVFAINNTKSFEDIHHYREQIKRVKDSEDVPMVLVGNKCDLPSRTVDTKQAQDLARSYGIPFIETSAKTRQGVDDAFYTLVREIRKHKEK
T8 sequence (P01116 1-169 isoform P01116-2 Q61H): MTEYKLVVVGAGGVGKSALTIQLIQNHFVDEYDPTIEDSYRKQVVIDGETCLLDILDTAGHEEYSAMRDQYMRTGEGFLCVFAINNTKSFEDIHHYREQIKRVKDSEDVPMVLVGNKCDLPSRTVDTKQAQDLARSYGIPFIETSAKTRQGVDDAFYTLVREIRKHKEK

inhibition at 0.01 µM (KRas^G12A) [%] | inhibition at 0.01 µM (KRas^G12S) [%] | IC50 [1] [nM] | inhibition at 0.01 µM (KRas^G13D) [%] | inhibition at 0.01 µM (KRas^G12C) [%] | IC50 (KRas^G12R) [nM] | IC50 (KRas^G12D) [nM] | inhibition at 0.01 µM (KRas^WT) [%] | inhibition at 0.01 µM (KRas^Q61H) [%] | IC50 (KRas^G12V) [nM] | IC50 [6] [nM] | IC50 [7] [nM] | IC50 [8] [nM] | Compound | inhibition at 0.1 µM [2] [%] | inhibition at 0.1 µM [3] [%] | inhibition at 0.1 µM [4] [%] | inhibition at 0.1 µM [5] [%] | other results
89 | 95 | 89 | 85 | 94 | 2 | < 2 | 85 | 87 | < 2 | 95 | 26 | > 10000 | CCc1c(F)ccc2cc(O)cc(-c3ncc4c(N5CCCn6nc(C(=O)N(C)C)cc6C5)nc(OC[C@]56CCCN5[C@H](COC(=O)N(C)C)CC6)nc4c3F)c12 [Example 714, ((3S,7aR)-7a-(((4-(2-(dimethylcarbamoyl)-7,8-dihydro-4H-pyrazolo[1,5-a][1,4]diazepin-5(6H)-yl)-7-(8-ethyl-7-fluoro-3-hydroxynaphthalen-1-yl)-8-fluoropyrido[4,3-d]pyrimidin-2-yl)oxy)methyl)hexahydro-1H-pyrrolizin-3-yl)methyl dimethylcarbamate] |  |  | 73 | 16 | IC50 [2]: 193 nM; IC50 [3]: 760 nM
83 | 95 | 273 | 98 | 97 | < 2 | < 2 | 93 | 98 | < 2 | 9 | 39 | 1020 | CCc1c(F)ccc2cc(O)cc(-c3ncc4c(N5CCCC6(CNS(=O)(=O)N6)C5)nc(OC[C@]56CCCN5[C@H](COC(=O)N(C)C)CC6)nc4c3F)c12 (stereo partly drawn) [Example 716, ((3S,7aR)-7a-(((4-(2,2-dioxido-2-thia-1,3,7-triazaspiro[4.5]decan-7-yl)-7-(8-ethyl-7-fluoro-3-hydroxynaphthalen-1-yl)-8-fluoropyrido[4,3-d]pyrimidin-2-yl)oxy)methyl)hexahydro-1H-pyrrolizin-3-yl)methyl dimethylcarbamate] | 56 | 34 | 71 | 37 | 

The next lines start with the molecule.

Compound | inhibition at 0.01 µM (KRas^G12A) [%] | inhibition at 0.01 µM (KRas^G12S) [%] | IC50 [1] [nM] | inhibition at 0.01 µM (KRas^G13D) [%] | inhibition at 0.01 µM (KRas^G12C) [%] | IC50 (KRas^G12R) [nM] | IC50 (KRas^G12D) [nM] | inhibition at 0.01 µM (KRas^WT) [%] | inhibition at 0.01 µM (KRas^Q61H) [%] | IC50 (KRas^G12V) [nM] | IC50 [6] [nM] | IC50 [7] [nM] | IC50 [8] [nM] | inhibition at 0.1 µM [2] [%] | inhibition at 0.1 µM [3] [%] | inhibition at 0.1 µM [4] [%] | inhibition at 0.1 µM [5] [%] | other results
CCc1c(F)ccc2cc(O)cc(-c3ncc4c(N5CCCCn6nc(C(=O)N(C)C)cc6C5)nc(OC[C@@]56CCCN5C[C@H](F)C6)nc4c3F)c12 [Example 671, 5-(7-(8-ethyl-7-fluoro-3-hydroxynaphthalen-1-yl)-8-fluoro-2-(((2R,7aS)-2-fluorotetrahydro-1H-pyrrolizin-7a(5H)-yl)methoxy)pyrido[4,3-d]pyrimidin-4-yl)-N,N-dimethyl-4,5,6,7,8,9-hexahydropyrazolo[1,5-a][1,4]diazocine-2-carboxamide] | 97 | 98 | 6 | 93 | 98 | < 2 | < 2 | 93 | 94 | < 2 | 7 | 28 | 4110 | 60 | 35 | 98 | 60 | 
CCc1c(F)ccc2cc(O)cc(-c3ncc4c(N5CCC(O)c6nn(C(=O)N(C)C)cc6C5)nc(OC[C@@]56CCCN5C[C@H](F)C6)nc4c3F)c12 (stereo partly drawn) [Example 674, 5-(7-(8-ethyl-7-fluoro-3-hydroxynaphthalen-1-yl)-8-fluoro-2-(((2R,7aS)-2-fluorohexahydro-1H-pyrrolizin-7a-yl)methoxy)pyrido[4,3-d]pyrimidin-4-yl)-8-hydroxy-N,N-dimethyl-5,6,7,8-tetrahydropyrazolo[4,3-c]azepine-2(4H)-carboxamide] | 93 | 97 | 21 | 92 | 98 | < 2 | < 2 | 91 | 95 | < 2 | 6 | 9 | > 10000 | 63 | 17 | 97 | 74 | IC50 [2]: 69 nM; IC50 [3]: 191 nM; IC50 ([4]; NCI-H358, HTRF pERK): 2 nM; IC50 ([5]; HTRF pERK): 30 nM
CCc1c(F)ccc2cc(O)cc(-c3ncc4c(N5CCCCn6nc(C(=O)N7CCOCC7)cc6C5)nc(OC[C@@]56CCCN5C[C@H](F)C6)nc4c3F)c12 [Example 690, (5-(7-(8-ethyl-7-fluoro-3-hydroxynaphthalen-1-yl)-8-fluoro-2-(((2R,7aS)-2-fluorotetrahydro-1H-pyrrolizin-7a(5H)-yl)methoxy)pyrido[4,3-d]pyrimidin-4-yl)-4,5,6,7,8,9-hexahydropyrazolo[1,5-a][1,4]diazocin-2-yl)(morpholino)methanone] | 93 | 96 | 37 | 90 | 97 | < 2 | < 2 | 91 | 92 | < 2 | 16 | 81 | 7620 | 37 | 20 | 79 | 4 | 
CCc1c(F)ccc2cc(O)cc(-c3ncc4c(N5CC6CC(O)C(C6)C5)nc(OC[C@]56CCCN5[C@H](COC(=O)N(C)C)CC6)nc4c3F)c12 (stereo partly drawn) [Example 707, ((3S,7aR)-7a-(((7-(8-ethyl-7-fluoro-3-hydroxynaphthalen-1-yl)-8-fluoro-4-(6-hydroxy-3-azabicyclo[3.2.1]octan-3-yl)pyrido[4,3-d]pyrimidin-2-yl)oxy)methyl)hexahydro-1H-pyrrolizin-3-yl)methyl dimethylcarbamate] | 76 | 85 | 24 | 85 | 84 | < 2 | 9 | 76 | 85 | 4 | 2 | 79 | 4410 | 84 | 47 | 88 | 71 | 
CCc1c(F)ccc2cc(O)cc(-c3ncc4c(N5CCCC6(C5)NC(=O)NC6=O)nc(OC[C@]56CCCN5[C@H](COC(=O)N(C)C)CC6)nc4c3F)c12 (stereo partly drawn) [Example 709, ((3S,7aR)-7a-(((4-(2,4-dioxo-1,3,7-triazaspiro[4.5]decan-7-yl)-7-(8-ethyl-7-fluoro-3-hydroxynaphthalen-1-yl)-8-fluoropyrido[4,3-d]pyrimidin-2-yl)oxy)methyl)hexahydro-1H-pyrrolizin-3-yl)methyl dimethylcarbamate] | 80 | 94 | 53 | 97 | 95 | < 2 | < 2 | 91 | 99 | < 2 | 3 | 63 | 253 | 88 | 65 | 101 | 62 | 
